Experimental data: patent US12162845B1, “3-(4-bromophenyl)-5-((2-isopropyl-5-methylphenoxy)methyl)-1,2,4-oxadiazole as an anti-cancer and antimicrobial compound” (KING FAISAL UNIVERSITY, priority 2023, dated 2024)

Legend:
Format in all cases: cell-based
Aspergillus flavus = experiment: Agar plate disc-diffusion, antifungal inhibition zone
Procedure: (§1) The agar plate disc-diffusion method was applied. […] The discs were then placed onto the surface of agar plates (nutrient agar for bacteria and Sabouraud's dextrose agar for fungi) seeded with the test organism. Each plate contained 15 mL of the agar medium, previously seeded with 0.2 mL of the broth culture of each organism pregrown for 18 hours. The plates were incubated at 37° C. for 48 h, and 72 h for fungi. The inhibition zones were measured in mm. Discs impregnated with DMSO were used as a control, and its inhibition zone was subtracted from the tested compound actual inhibition zone.

[1] = system: Chrysosporium keratinophilum; experiment: as above
Procedure: as §1

Staphylococcus aureus = experiment: Agar plate disc-diffusion, antibacterial inhibition zone
Procedure: as §1

Escherichia coli = experiment: as above
Procedure: as §1

Bacillus Cereus = experiment: as above
Procedure: as §1

Pseudomonas aeruginosa = experiment: as above
Procedure: as §1

different microbes = experiment: Antimicrobial activity, agar plate disc-diffusion (overall statement); settings: against different microbes, result in words
Procedure: The agar plate disc-diffusion method was applied. Sterilized filter papers (6 mm in diameter) were wetted with 10 μL of a solution of 3-(4-bromophenyl)-5-((2-isopropyl-5-methylphenoxy)methyl)-1,2,4-oxadiazole (3) to be tested, containing 10 mg/mL in DMSO, and the discs were allowed to air dry. The discs were then placed onto the surface of agar plates (nutrient agar for bacteria and Sabouraud's dextrose agar for fungi) seeded with the test organism. Each plate contained 15 mL of the agar medium, previously seeded with 0.2 mL of the broth culture of each organism pregrown for 18 hours. The plates were incubated at 37° C. for 48 h, and 72 h for fungi. The inhibition zones were measured in mm. Discs impregnated with DMSO were used as a control, and its inhibition zone was subtracted from the tested compound actual inhibition zone.

[2] = system: human osteosarcoma cells (MG-63); experiment: Cytotoxicity by SRB assay; settings: MG-63 cells, 0.01 μM to 100 μM for 72 h, result in words
Text: (§2) The anticancer activity of the described synthesized compounds against highly aggressive androgen-independent metastatic human prostate cancer cells (PC3) and osteosarcoma (MG-63) cells. The human prostate cancer cells (PC3) and human osteosarcoma cells (MG-63) were obtained from Nawah Scientific Inc. (Mokatam, Cairo, Egypt) and cultured in DMEM (Dulbecco's modified eagle's medium), Gibco, USA, supplemented with fetal bovine serum (FBS) at a concentration of 10% and 100 U/mL of penicillin and streptomycin (PS). The Cells were incubated at 37° C. in a humidified environment that contained 5% CO2.
(§3) Cells were seeded in 96-well plates as aliquots of 100 μL cell suspension and incubated in a complete media for 24 h. afterward, cells were treated with 3-(4-bromophenyl)-5-((2-isopropyl-5-methylphenoxy)methyl)-1,2,4-oxadiazole at diverse concentrations ranging from 0.01 μM to 100 μM for 72 h. Then, cells were fixed at 4° C. for one hour with 150 μL of 10% trichloroacetic acid (TCA). […] Then, 150 μL of Tris pH 10.5 (10 mM) was added, and the absorbance was measured at 540 nm using a BMG LABTECH®-FLUOstar Omega microplate reader (Ortenberg, Germany). Half maximal inhibitory concentrations (IC50) values were calculated for each experiment using GraphPad Prism 6 software. […]
(§4) The inhibition was calculated using the following equation: Inhibition %=100−Average Viability

[3] = system: human prostate cancer cells (PC3); experiment: Cytotoxicity by SRB assay; settings: 0.01 μM to 100 μM for 72 h, result in words
Text: as §2, §3, §4

[4] = A = concentration of comp. = 10,000 μL
[5] = B = concentration of comp. = 30,000 μL
[6] = C = concentration of comp. = 50,000 μL

SMILES | inhibition zone (Aspergillus flavus; [4]) [mm] | inhibition zone (Aspergillus flavus; [5]) [mm] | inhibition zone (Aspergillus flavus; [6]) [mm] | inhibition zone [1, 4] [mm] | inhibition zone [1, 5] [mm] | inhibition zone [1, 6] [mm] | inhibition zone (Staphylococcus aureus; [4]) [mm] | inhibition zone (Staphylococcus aureus; [5]) [mm] | inhibition zone (Staphylococcus aureus; [6]) [mm] | inhibition zone (Escherichia coli; [4]) [mm] | inhibition zone (Escherichia coli; [5]) [mm] | inhibition zone (Escherichia coli; [6]) [mm] | inhibition zone (Bacillus Cereus; [4]) [mm] | inhibition zone (Bacillus Cereus; [5]) [mm] | inhibition zone (Bacillus Cereus; [6]) [mm] | inhibition zone (Pseudomonas aeruginosa; [4]) [mm] | inhibition zone (Pseudomonas aeruginosa; [5]) [mm] | inhibition zone (Pseudomonas aeruginosa; [6]) [mm] | further results
O=C(O)c1cn(C2CC2)c2cc(N3CCNCC3)c(F)cc2c1=O [Cip., ciprofloxacin, reference compound] | 29 | 30 | 42 | 29 | 30 | 53 | 43 | 44 | 53 | 30 | 39 | 60 | 29 | 30 | 42 | 29 | 30 | 53 | 
Cc1ccc(C(C)C)c(OCc2nc(-c3ccc(Br)cc3)no2)c1 [compound 3, 3-(4-bromophenyl)-5-((2-isopropyl-5-methylphenoxy)methyl)-1,2,4-oxadiazole] | 17 | 20 | 29 | 26 | 28 | 48 | 13 | 17 | 21 | 28 | 37 | 55 | 25 | 27 | 42 | 24 | 27 | 39 | antimicrobial activity (different microbes): excellent antimicrobial activities
Cc1ccc(C(C)C)c(OCc2nc(-c3ccc(Br)cc3)no2)c1 [3-(4-bromophenyl)-5-((2-isopropyl-5-methylphenoxy)methyl)-1,2,4-oxadiazole] |  |  |  |  |  |  |  |  |  |  |  |  |  |  |  |  |  |  | antiproliferative activity [2]: excellent antiproliferative activities; antiproliferative activity [3]: excellent antiproliferative activities
